Source: ChEMBL document CHEMBL3867473, “The comparison of neuroprotective effects of isoliquiritigenin and its Phase I metabolites against glutamate-induced HT22 cell death” (2016)
Activity calls are given as the source filed them. The calls are words filed in the database; no cut-off is given here.

How the values were obtained:
HT-22 [1] = test: Neuroprotective activity in mouse HT22 cells assessed as decrease in glutamate-induced reduction of full-length Bid level at 5 uM pretreated for 12 hrs prior to glutamate-challenge measured after 12 hrs by Western blotting assay; assay type: functional, cell-based
HT-22 [2] = test: Inhibition of glutamate-induced increase in JNK phosphorylation in mouse HT22 cells at 5 uM pretreated for 12 hrs followed by glutamate-challenge measured after 12 hrs by Western blotting assay (reference value: 1.84 +/- 0.11); assay type: cell-based
[3] = Neuroprotective activity against glutamate-induced cell death in mouse HT22 cells assessed as cell viability at 10 uM pretreated for 12 hrs prior to glutamate-challenge measured after 12 hrs by MTT assay (reference value: 43.35 +/- 1.48%); assay type: functional; conditions: HT-22, read-out: Activity
HT-22 [4] = test: Inhibition of glutamate-induced increase in ERK phosphorylation in mouse HT22 cells at 5 uM pretreated for 12 hrs followed by glutamate-challenge measured after 12 hrs by Western blotting assay (reference value: 3.01 +/- 0.3); assay type: cell-based
HT-22 [5] = test: Neuroprotective activity in mouse HT22 cells assessed as decrease of glutamate-induced ROS production at 5 uM pretreated for 12 hrs prior to glutamate-challenge measured after 12 hrs by CM-H2CDFDA staining-based flow cytometry (reference value: 3.95 +/- 0.01); assay type: functional
HT-22 [6] = test: Neuroprotective activity against glutamate-induced oxidative stress in mouse HT22 cells assessed as ROS level at 5 uM pretreated for 12 hrs prior to glutamate-challenge measured after 12 hrs (reference value: 241.63 +/- 7.98%); assay type: functional
[7] = target: MAP kinase p38 (Mus musculus) (UniProt P47811+O08911+Q9WUI1+Q9Z1B7); test: Inhibition of glutamate-induced increase in p38 phosphorylation in mouse HT22 cells at 5 uM pretreated for 12 hrs followed by glutamate-challenge measured after 12 hrs by Western blotting assay (reference value: 2.46 +/- 0.96); assay type: cell-based; conditions: HT-22
HT-22 [8] = test: Neuroprotective activity in mouse HT22 cells assessed as decrease in glutamate-induced reduction of full-length Bid level at 5 uM pretreated for 12 hrs prior to glutamate-challenge measured after 12 hrs by Western blotting assay (reference value: 0.9 +/- 0.05); assay type: functional
HT-22 [9] = test: Neuroprotective activity against glutamate-induced oxidative stress in mouse HT22 cells assessed as ROS level at 10 uM pretreated for 12 hrs prior to glutamate-challenge measured after 12 hrs (reference value: 241.63 +/- 7.98%); assay type: functional
HT-22 [10] = test: Neuroprotective activity in mouse HT22 cells assessed as decrease of glutamate-induced ROS production at 10 uM pretreated for 12 hrs prior to glutamate-challenge measured after 12 hrs by CM-H2CDFDA staining-based flow cytometry (reference value: 3.95 +/- 0.01); assay type: functional

| Structure (SMILES) | Activity (HT-22 [1]) | fold change (FC) (HT-22 [2]) | viability at 10 µM [3] | fold change (FC) (HT-22 [4]) | fold change (FC) (HT-22 [5]) | Activity (HT-22 [6]) | fold change (FC) [7] | fold change (FC) (HT-22 [8]) | Activity (HT-22 [9]) | fold change (FC) (HT-22 [10]) |
| --- | --- | --- | --- | --- | --- | --- | --- | --- | --- | --- |
| O=C(/C=C/c1ccc(O)cc1)c1cc(O)c(O)cc1O | Active | 1.08 | 83.5% | 1.64 | 2.39 | 137.94% | 1.21 | – | – | – |
| O=C(/C=C/c1ccc(O)c(O)c1)c1ccc(O)cc1O [BUTEIN] | – | 0.73 | 92.5% | 1.49 | 0.69 | 59.79% | 0.75 | 1.22 | – | – |
| O=C(/C=C/c1ccc(O)cc1)c1ccc(O)cc1O [ISOLIQUIRITIGENIN] | – | 1 | 78.9% | 0.8 | 1.44 | 96.19% | 1.03 | 0.94 | – | – |
| O=c1c(O)c(-c2ccc(O)c(O)c2)oc2cc(O)cc(O)c12 [QUERCETIN] | – | – | 93.7% | 0.77 | – | – | – | 1.16 | 53.84% | 0.79 |
| O=C1/C(=C/c2ccc(O)c(O)c2)Oc2cc(O)ccc21 [SULFURETIN] | Active | 0.72 | 93.7% | 2.02 | 1.82 | 102.25% | 1.09 | – | – | – |
